Results taken from paper PMC11558128 (Advanced Science, 2024).
Read-outs that look alike come from different tables or passages of the source. Positions of bridges follow the written chain, without caps; N, C: chain ends. Residues, ends and D or L forms follow the SMILES beside them.

What was measured:
hNav1.7 = target: T1, hNav1.7 (Homo sapiens, UniProt Q15858); assay: cell-based; conditions: whole-cell patch clamp, HEK293T, mean ± SEM, this study, read-out: IC50 on hNav1.7
T1 construct: expressed in transfected cells; host or cells: HEK293T

rKv4.2 = target: T2, rKv4.2 (Rattus norvegicus, UniProt Q63881); assay: cell-based; conditions: for IC50: whole-cell patch clamp, HEK293T, mean ± SEM, n = 3-8, read-out: IC50 on rKv4.2 WT
T2 construct: expressed in transfected cells; host or cells: HEK293T
T2 sequence (Q63881 1-630): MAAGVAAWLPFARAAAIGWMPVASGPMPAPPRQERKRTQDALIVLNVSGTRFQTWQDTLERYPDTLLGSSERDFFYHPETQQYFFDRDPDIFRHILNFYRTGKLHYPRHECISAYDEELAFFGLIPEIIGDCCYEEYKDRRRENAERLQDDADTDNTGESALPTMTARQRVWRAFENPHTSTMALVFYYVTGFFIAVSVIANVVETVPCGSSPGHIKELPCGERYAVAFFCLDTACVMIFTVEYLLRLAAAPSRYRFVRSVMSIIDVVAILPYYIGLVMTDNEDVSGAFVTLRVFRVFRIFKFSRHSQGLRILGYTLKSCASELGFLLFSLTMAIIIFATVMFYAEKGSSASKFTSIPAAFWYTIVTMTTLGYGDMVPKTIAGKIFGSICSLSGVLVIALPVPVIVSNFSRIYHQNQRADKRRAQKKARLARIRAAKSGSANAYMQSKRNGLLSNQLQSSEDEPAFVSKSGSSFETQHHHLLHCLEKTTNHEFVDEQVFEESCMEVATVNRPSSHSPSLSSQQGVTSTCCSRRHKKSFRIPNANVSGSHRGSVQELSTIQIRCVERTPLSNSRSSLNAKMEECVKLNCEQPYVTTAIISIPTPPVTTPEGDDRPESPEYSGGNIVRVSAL

T1 sequence (O60939 30-215): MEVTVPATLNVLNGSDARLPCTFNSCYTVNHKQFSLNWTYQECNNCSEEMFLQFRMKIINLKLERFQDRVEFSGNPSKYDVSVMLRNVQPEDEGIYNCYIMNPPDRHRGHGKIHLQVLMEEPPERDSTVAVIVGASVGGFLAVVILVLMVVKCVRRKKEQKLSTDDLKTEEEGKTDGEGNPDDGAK
T1 sequence (Q15858 other isoform, or with tags, fused parts or gaps): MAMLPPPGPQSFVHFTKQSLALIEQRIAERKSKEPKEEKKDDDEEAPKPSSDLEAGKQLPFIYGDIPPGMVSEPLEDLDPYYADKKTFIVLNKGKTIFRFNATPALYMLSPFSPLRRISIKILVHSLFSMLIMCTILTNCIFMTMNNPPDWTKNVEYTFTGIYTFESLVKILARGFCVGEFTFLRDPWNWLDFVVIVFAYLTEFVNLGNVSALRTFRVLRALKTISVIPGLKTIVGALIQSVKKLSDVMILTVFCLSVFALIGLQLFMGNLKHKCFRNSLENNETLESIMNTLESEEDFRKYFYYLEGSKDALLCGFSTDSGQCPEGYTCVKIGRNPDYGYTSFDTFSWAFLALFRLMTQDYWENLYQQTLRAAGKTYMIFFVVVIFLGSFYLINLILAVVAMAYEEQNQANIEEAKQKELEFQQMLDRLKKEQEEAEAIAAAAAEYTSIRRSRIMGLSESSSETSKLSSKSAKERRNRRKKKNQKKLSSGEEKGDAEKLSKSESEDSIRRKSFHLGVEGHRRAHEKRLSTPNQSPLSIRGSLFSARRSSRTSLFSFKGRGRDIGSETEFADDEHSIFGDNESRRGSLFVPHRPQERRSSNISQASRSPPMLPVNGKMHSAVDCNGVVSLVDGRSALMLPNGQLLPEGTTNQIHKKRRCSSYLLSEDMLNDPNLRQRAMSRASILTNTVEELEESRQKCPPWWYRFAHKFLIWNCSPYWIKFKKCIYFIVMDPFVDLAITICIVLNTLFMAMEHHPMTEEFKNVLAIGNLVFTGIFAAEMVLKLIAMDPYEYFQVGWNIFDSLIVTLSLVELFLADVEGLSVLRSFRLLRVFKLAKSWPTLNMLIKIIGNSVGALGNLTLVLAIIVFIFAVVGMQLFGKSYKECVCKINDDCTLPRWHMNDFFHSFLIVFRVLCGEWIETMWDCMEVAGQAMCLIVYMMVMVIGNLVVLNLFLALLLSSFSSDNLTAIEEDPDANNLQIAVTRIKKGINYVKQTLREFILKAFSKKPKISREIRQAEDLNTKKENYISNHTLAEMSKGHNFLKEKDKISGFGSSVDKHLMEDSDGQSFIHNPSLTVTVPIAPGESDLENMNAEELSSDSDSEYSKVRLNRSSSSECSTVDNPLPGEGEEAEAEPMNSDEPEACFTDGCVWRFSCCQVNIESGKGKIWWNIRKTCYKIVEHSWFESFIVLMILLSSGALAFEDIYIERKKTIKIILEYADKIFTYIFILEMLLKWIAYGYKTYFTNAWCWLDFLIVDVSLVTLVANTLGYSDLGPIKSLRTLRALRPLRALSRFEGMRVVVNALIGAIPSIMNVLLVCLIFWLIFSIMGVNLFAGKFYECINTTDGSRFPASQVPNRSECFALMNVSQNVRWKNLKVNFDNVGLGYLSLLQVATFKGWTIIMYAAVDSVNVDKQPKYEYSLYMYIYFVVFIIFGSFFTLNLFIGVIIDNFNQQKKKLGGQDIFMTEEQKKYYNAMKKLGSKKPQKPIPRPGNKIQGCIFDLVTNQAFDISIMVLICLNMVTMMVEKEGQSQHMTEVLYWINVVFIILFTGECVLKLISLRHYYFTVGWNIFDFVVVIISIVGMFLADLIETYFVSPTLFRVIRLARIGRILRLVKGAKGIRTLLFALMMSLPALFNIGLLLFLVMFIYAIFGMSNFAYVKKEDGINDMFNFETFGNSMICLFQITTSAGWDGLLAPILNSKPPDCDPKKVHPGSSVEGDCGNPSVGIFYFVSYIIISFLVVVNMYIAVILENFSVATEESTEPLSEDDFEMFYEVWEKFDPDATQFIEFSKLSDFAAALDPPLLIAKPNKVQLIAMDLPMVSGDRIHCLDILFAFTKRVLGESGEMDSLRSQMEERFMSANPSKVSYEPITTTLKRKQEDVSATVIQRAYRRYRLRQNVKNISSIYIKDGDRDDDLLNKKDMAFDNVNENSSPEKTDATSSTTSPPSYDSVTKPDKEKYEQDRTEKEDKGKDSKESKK
T1 sequence (Q07699 19-218, further chain): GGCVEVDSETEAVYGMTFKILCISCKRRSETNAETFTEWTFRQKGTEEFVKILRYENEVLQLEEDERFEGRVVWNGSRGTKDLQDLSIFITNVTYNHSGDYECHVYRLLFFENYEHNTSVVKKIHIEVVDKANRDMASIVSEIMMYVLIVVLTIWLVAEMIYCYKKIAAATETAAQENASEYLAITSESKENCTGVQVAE

**Q.** What does the source list for CC(C)C[C@H](NC(=O)[C@H](Cc1ccc(O)cc1)NC(=O)[C@@H](NC(=O)[C@H](CCCCN)NC(=O)[C@@H]1CSSC[C@@H]2NC(=O)[C@H](CCC(=O)O)NC(=O)[C@H](CC(N)=O)NC(=O)[C@H](CCCCN)NC(=O)CNC(=O)[C@@H]3CCCN3C(=O)[C@H]([C@@H](C)O)NC(=O)[C@@H]3CSSC[C@H](NC(=O)[C@H](C)NC(=O)[C@H](Cc4ccc(O)cc4)NC(=O)[C@H](CC(N)=O)NC(=O)[C@@H]4CCCN4C(=O)[C@H](CSSC[C@H](NC(=O)CN)C(=O)N[C@@H](CCCCN)C(=O)NCC(=O)N[C@@H](Cc4ccccc4)C(=O)NCC(=O)N[C@@H](CC(=O)O)C(=O)N[C@@H](CO)C(=O)N3)NC2=O)C(=O)N[C@@H](CO)C(=O)N[C@@H](CO)C(=O)N[C@@H](C)C(=O)N[C@@H](Cc2c[nH]cn2)C(=O)N[C@@H](CCCCN)C(=O)N[C@@H](Cc2c[nH]c3ccccc23)C(=O)N1)C(C)C)C(N)=O [K25A] (H-GCKGFGDSCTPGKNECCPNYACSSAHKWCKVYL-NH2; disulfide 2-17, 9-22, 16-29)?
**A.** IC50 (hNav1.7; SEM): 2 ± 0.332 µM; IC50 (rKv4.2): > 20 µM

**Q.** How did the IC50 (hNav1.7) turn out when CC(C)[C@H](NC(=O)[C@H](CCCCN)NC(=O)[C@@H]1CSSC[C@@H]2NC(=O)[C@H](CCC(=O)O)NC(=O)[C@H](CC(N)=O)NC(=O)[C@H](CCCCN)NC(=O)CNC(=O)[C@@H]3CCCN3C(=O)[C@H]([C@@H](C)O)NC(=O)[C@@H]3CSSC[C@H](NC(=O)[C@H](C)NC(=O)[C@H](Cc4ccc(O)cc4)NC(=O)[C@H](CC(N)=O)NC(=O)[C@@H]4CCCN4C(=O)[C@H](CSSC[C@H](NC(=O)CN)C(=O)N[C@@H](CCCCN)C(=O)NCC(=O)N[C@@H](Cc4ccccc4)C(=O)NCC(=O)N[C@@H](CC(=O)O)C(=O)N[C@@H](CO)C(=O)N3)NC2=O)C(=O)N[C@@H](CO)C(=O)N[C@@H](CO)C(=O)N[C@@H](CCCCN)C(=O)N[C@@H](Cc2c[nH]cn2)C(=O)N[C@@H](CCCCN)C(=O)N[C@@H](Cc2c[nH]c3ccccc23)C(=O)N1)C(=O)N[C@@H](Cc1ccc(O)cc1)C(=O)N[C@@H](CCCCN)C(N)=O [L33K] (H-GCKGFGDSCTPGKNECCPNYACSSKHKWCKVYK-NH2; disulfide 2-17, 9-22, 16-29) was run?
**A.** The IC50 was greater than 10 µM.

**Q.** What about the IC50 (rKv4.2; SEM) of the same compound?
**A.** The IC50 was 20 ± 4 µM.

**Q.** What does the source list for CC(C)C[C@H](NC(=O)[C@H](Cc1ccc(O)cc1)NC(=O)[C@@H](NC(=O)[C@H](CCCCN)NC(=O)[C@@H]1CSSC[C@@H]2NC(=O)[C@H](CCC(=O)O)NC(=O)[C@H](CC(N)=O)NC(=O)[C@H](CCCCN)NC(=O)CNC(=O)[C@@H]3CCCN3C(=O)[C@H]([C@@H](C)O)NC(=O)[C@@H]3CSSC[C@H](NC(=O)[C@H](C)NC(=O)[C@H](Cc4ccc(O)cc4)NC(=O)[C@H](C)NC(=O)[C@@H]4CCCN4C(=O)[C@H](CSSC[C@H](NC(=O)CN)C(=O)N[C@@H](CCCCN)C(=O)NCC(=O)N[C@@H](Cc4ccccc4)C(=O)NCC(=O)N[C@@H](CC(=O)O)C(=O)N[C@@H](CO)C(=O)N3)NC2=O)C(=O)N[C@@H](CO)C(=O)N[C@@H](CO)C(=O)N[C@@H](CCCCN)C(=O)N[C@@H](Cc2c[nH]cn2)C(=O)N[C@@H](CCCCN)C(=O)N[C@@H](Cc2c[nH]c3ccccc23)C(=O)N1)C(C)C)C(N)=O [N19A] (H-GCKGFGDSCTPGKNECCPAYACSSKHKWCKVYL-NH2; disulfide 2-17, 9-22, 16-29)?
**A.** IC50 (hNav1.7; SEM): 0.116 ± 0.009 µM; IC50 (rKv4.2; SEM): 0.064 ± 0.009 µM

**Q.** How did the IC50 (rKv4.2; SEM) turn out when CC(C)C[C@H](NC(=O)[C@H](Cc1ccc(O)cc1)NC(=O)[C@@H](NC(=O)[C@H](CCCCN)NC(=O)[C@@H]1CSSC[C@@H]2NC(=O)[C@H](CCC(=O)O)NC(=O)[C@H](CC(N)=O)NC(=O)[C@H](CCCCN)NC(=O)CNC(=O)[C@@H]3CCCN3C(=O)[C@H]([C@@H](C)O)NC(=O)[C@@H]3CSSC[C@H](NC(=O)[C@H](C)NC(=O)[C@H](Cc4ccc(O)cc4)NC(=O)[C@H](CC(C)C)NC(=O)[C@@H]4CCCN4C(=O)[C@H](CSSC[C@H](NC(=O)CN)C(=O)N[C@@H](CCCCN)C(=O)NCC(=O)N[C@@H](Cc4ccccc4)C(=O)NCC(=O)N[C@@H](CC(=O)O)C(=O)N[C@@H](CO)C(=O)N3)NC2=O)C(=O)N[C@@H](CO)C(=O)N[C@@H](CO)C(=O)N[C@@H](CCCCN)C(=O)N[C@@H](Cc2c[nH]cn2)C(=O)N[C@@H](CCCCN)C(=O)N[C@@H](Cc2c[nH]c3ccccc23)C(=O)N1)C(C)C)C(N)=O [N19L] (H-GCKGFGDSCTPGKNECCPLYACSSKHKWCKVYL-NH2; disulfide 2-17, 9-22, 16-29) was run?
**A.** The IC50 was 0.042 ± 0.004 µM.

**Q.** Which IC50 (rKv4.2; SEM) does the source give for CC(C)C[C@H](NC(=O)[C@H](Cc1ccc(O)cc1)NC(=O)[C@@H](NC(=O)[C@H](CCCCN)NC(=O)[C@@H]1CSSC[C@@H]2NC(=O)[C@H](CCC(=O)O)NC(=O)[C@H](CC(N)=O)NC(=O)[C@H](CCCCN)NC(=O)CNC(=O)[C@@H]3CCCN3C(=O)[C@H]([C@@H](C)O)NC(=O)[C@@H]3CSSC[C@H](NC(=O)[C@H](C)NC(=O)[C@H](Cc4ccc(O)cc4)NC(=O)[C@H](CC(N)=O)NC(=O)[C@H](C)NC(=O)[C@H](CSSC[C@H](NC(=O)CN)C(=O)N[C@@H](CCCCN)C(=O)NCC(=O)N[C@@H](Cc4ccccc4)C(=O)NCC(=O)N[C@@H](CC(=O)O)C(=O)N[C@@H](CO)C(=O)N3)NC2=O)C(=O)N[C@@H](CO)C(=O)N[C@@H](CO)C(=O)N[C@@H](CCCCN)C(=O)N[C@@H](Cc2c[nH]cn2)C(=O)N[C@@H](CCCCN)C(=O)N[C@@H](Cc2c[nH]c3ccccc23)C(=O)N1)C(C)C)C(N)=O [P18A] (H-GCKGFGDSCTPGKNECCANYACSSKHKWCKVYL-NH2; disulfide 2-17, 9-22, 16-29) here?
**A.** Its IC50 is 0.14 ± 0.043 µM.

**Q.** How did the IC50 (rKv4.2; SEM) turn out when CC(C)C[C@H](NC(=O)[C@H](Cc1ccc(O)cc1)NC(=O)[C@@H](NC(=O)[C@H](CCCCN)NC(=O)[C@@H]1CSSC[C@@H]2NC(=O)[C@H](CCC(=O)O)NC(=O)[C@H](CC(N)=O)NC(=O)[C@H](CCCCN)NC(=O)CNC(=O)[C@@H]3CCCN3C(=O)[C@H]([C@@H](C)O)NC(=O)[C@@H]3CSSC[C@H](NC(=O)[C@H](C)NC(=O)[C@H](Cc4ccc(O)cc4)NC(=O)[C@H](CC(N)=O)NC(=O)[C@H](CCCCN)NC(=O)[C@H](CSSC[C@H](NC(=O)CN)C(=O)N[C@@H](CCCCN)C(=O)NCC(=O)N[C@@H](Cc4ccccc4)C(=O)NCC(=O)N[C@@H](CC(=O)O)C(=O)N[C@@H](CO)C(=O)N3)NC2=O)C(=O)N[C@@H](CO)C(=O)N[C@@H](CO)C(=O)N[C@@H](CCCCN)C(=O)N[C@@H](Cc2c[nH]cn2)C(=O)N[C@@H](CCCCN)C(=O)N[C@@H](Cc2c[nH]c3ccccc23)C(=O)N1)C(C)C)C(N)=O [P18K] (H-GCKGFGDSCTPGKNECCKNYACSSKHKWCKVYL-NH2; disulfide 2-17, 9-22, 16-29) was run?
**A.** Its IC50 is 0.167 ± 0.117 µM.

**Q.** How did the IC50 (rKv4.2; SEM) turn out when CC(C)C[C@H](NC(=O)[C@H](Cc1ccc(O)cc1)NC(=O)[C@@H](NC(=O)[C@H](CCCCN)NC(=O)[C@@H]1CSSC[C@@H]2NC(=O)[C@H](CCC(=O)O)NC(=O)[C@H](CC(N)=O)NC(=O)[C@H](CCCCN)NC(=O)CNC(=O)[C@@H]3CCCN3C(=O)[C@H](CCC(=O)O)NC(=O)[C@@H]3CSSC[C@H](NC(=O)[C@H](C)NC(=O)[C@H](Cc4ccc(O)cc4)NC(=O)[C@H](CC(N)=O)NC(=O)[C@@H]4CCCN4C(=O)[C@H](CSSC[C@H](NC(=O)CN)C(=O)N[C@@H](CCCCN)C(=O)NCC(=O)N[C@@H](Cc4ccccc4)C(=O)NCC(=O)N[C@@H](CC(=O)O)C(=O)N[C@@H](CO)C(=O)N3)NC2=O)C(=O)N[C@@H](CO)C(=O)N[C@@H](CO)C(=O)N[C@@H](CCCCN)C(=O)N[C@@H](Cc2c[nH]cn2)C(=O)N[C@@H](CCCCN)C(=O)N[C@@H](Cc2c[nH]c3ccccc23)C(=O)N1)C(C)C)C(N)=O [T10E] (H-GCKGFGDSCEPGKNECCPNYACSSKHKWCKVYL-NH2; disulfide 2-17, 9-22, 16-29) was run?
**A.** The IC50 was 0.452 ± 0.221 µM.

**Q.** With CC(C)C[C@H](NC(=O)[C@H](Cc1ccc(O)cc1)NC(=O)[C@@H](NC(=O)[C@H](CCCCN)NC(=O)[C@@H]1CSSC[C@@H]2NC(=O)[C@H](CCC(=O)O)NC(=O)[C@H](CC(N)=O)NC(=O)[C@H](CCCCN)NC(=O)CNC(=O)[C@@H]3CCCN3C(=O)[C@H]([C@@H](C)O)NC(=O)[C@@H]3CSSC[C@H](NC(=O)[C@H](C)NC(=O)[C@H](Cc4ccc(O)cc4)NC(=O)[C@H](CC(N)=O)NC(=O)[C@@H]4CCCN4C(=O)[C@H](CSSC[C@H](NC(=O)CN)C(=O)N[C@@H](CCCCN)C(=O)NCC(=O)N[C@@H](Cc4ccccc4)C(=O)NCC(=O)N[C@@H](CC(=O)O)C(=O)N[C@@H](CO)C(=O)N3)NC2=O)C(=O)N[C@@H](CO)C(=O)N[C@@H](CO)C(=O)N[C@@H](CCCCN)C(=O)N[C@@H](Cc2c[nH]cn2)C(=O)N[C@@H](CCCCN)C(=O)N[C@@H](C)C(=O)N1)C(C)C)C(N)=O [W28A] (H-GCKGFGDSCTPGKNECCPNYACSSKHKACKVYL-NH2; disulfide 2-17, 9-22, 16-29; N-terminus and C-terminus assumed) as the compound, how does the “inhibition of rKv4.2, in words” value (rKv4.2; analogue compared with its parent toxin) read?
**A.** Its value is “dramatically decreased inhibition”.
